# How the values were obtained:
# barnyardgrass [1] = experiment: Test A preemergence; type: in vivo, Echinochloa crus-galli
# Summary of the method: (§1)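 Compounds in non-phytotoxic solvent with surfactant applied as soil spray preemergence, or postemergence to plants 2-10 cm at one- to two-leaf stage, in loam/sand. After approximately 10 days in greenhouse, injury rated visually versus untreated controls, 0 (no effect) to 100 (complete control).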
# giant foxtail [2] = experiment: Test A preemergence; type: in vivo, Setaria faberii
# Summary of the method: as §1
# morningglory [3] = experiment: Test A preemergence; type: in vivo, Ipomoea spp.; settings: for Morningglory plant response rating (0 to 100 scale): 125 g ai/ha
# Summary of the method: as §1
# pigweed [4] = experiment: Test A preemergence; type: in vivo, Amaranthus retroflexus; settings: for Pigweed plant response rating (0 to 100 scale): 125 g ai/ha
# Summary of the method: as §1
# morningglory [5] = experiment: Test A postemergence; type: in vivo, Ipomoea spp.; settings: for Morningglory plant response rating: 125 g ai/ha
# Summary of the method: as §1
# pigweed [6] = experiment: Test A postemergence; type: in vivo, Amaranthus retroflexus; settings: for Pigweed plant response rating: 125 g ai/ha
# Summary of the method: as §1
# sedge, umbrella = experiment: Test B flooded paddy test; type: in vivo, Cyperus difformis; settings: Flood, 250 g ai/ha; 0 to 100 scale where 0 is no effect and 100 is complete control
# Summary of the method: (§2)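 Compound added straight to paddy water, with pots kept flooded 3 cm above soil, on plants grown to the 2-leaf stage. Visual scoring 0-100 (100 = complete control) against untreated controls after 13 to 15 greenhouse days.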
# barnyardgrass [7] = experiment: Test B flooded paddy test; type: in vivo, Echinochloa crus-galli; settings: Flood, 250 g ai/ha; 0 to 100 scale where 0 is no effect and 100 is complete control
# Summary of the method: as §2
# blackgrass = experiment: Test C postemergence; type: in vivo, Alopecurus myosuroides; settings: for Plant response rating (0 to 100), Blackgrass: 0 is no effect, 100 is complete control; for Blackgrass plant response rating: 31 g ai/ha; for Blackgrass plant response rating / Plant response rating, Blackgrass: scale 0 to 100 (0 no effect, 100 complete control)
# Summary of the method: (§3)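 Visual ratings on a 0–100 scale (100 = complete control) were made versus untreated controls after 13–15 greenhouse days. Chemicals in a surfactant-containing non-phytotoxic solvent were applied either preemergence to seeds in loam–sand soil or postemergence to 1- to 4-leaf plants 2–18 cm tall.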
# Italian ryegrass = experiment: Test C postemergence; type: in vivo, Lolium multiflorum; settings: for Plant response rating (0 to 100), Ryegrass, Italian: 0 is no effect, 100 is complete control; for Ryegrass, Italian plant response rating: 31 g ai/ha; for Ryegrass, Italian plant response rating / Plant response rating, Ryegrass, Italian: scale 0 to 100 (0 no effect, 100 complete control)
# Summary of the method: as §3
# corn = experiment: Test C postemergence; type: in vivo, Zea mays; settings: for Plant response rating (0 to 100), Corn: 0 is no effect, 100 is complete control; for Corn plant response rating: 31 g ai/ha; for Corn plant response rating / Plant response rating, Corn: scale 0 to 100 (0 no effect, 100 complete control)
# Summary of the method: as §3
# large (Lg) crabgrass = experiment: Test C postemergence; type: in vivo, Digitaria sanguinalis; settings: for Plant response rating (0 to 100), Crabgrass, Large: 0 is no effect, 100 is complete control; for Crabgrass, Large plant response rating: 31 g ai/ha; for Crabgrass, Large plant response rating / Plant response rating, Crabgrass, Large: scale 0 to 100 (0 no effect, 100 complete control)
# Summary of the method: as §3
# giant foxtail [8] = experiment: Test C postemergence; type: in vivo, Setaria faberii; settings: for Plant response rating (0 to 100), Foxtail, Giant: 0 is no effect, 100 is complete control; for Foxtail, Giant plant response rating: 31 g ai/ha; for Foxtail, Giant plant response rating / Plant response rating, Foxtail, Giant: scale 0 to 100 (0 no effect, 100 complete control)
# Summary of the method: as §3
# johnsongrass = experiment: Test C postemergence; type: in vivo, Sorghum halepense; settings: for Plant response rating (0 to 100), Johnsongrass: 0 is no effect, 100 is complete control; for Johnsongrass plant response rating: 31 g ai/ha; for Johnsongrass plant response rating / Plant response rating, Johnsongrass: scale 0 to 100 (0 no effect, 100 complete control)
# Summary of the method: as §3
# chickweed = experiment: Test C postemergence; type: in vivo, Stellaria media; settings: for Plant response rating (0 to 100), Chickweed: 0 is no effect, 100 is complete control; for Chickweed plant response rating: 31 g ai/ha; for Chickweed plant response rating / Plant response rating, Chickweed: scale 0 to 100 (0 no effect, 100 complete control)
# Summary of the method: as §3
# [9] = 500 g ai/ha, 0 to 100 scale where 0 is no effect and 100 is complete control
# [10] = 0 to 100 scale where 0 is no effect and 100 is complete control
# [11] = postemergence, visual rating, 13 to 15 days
# [12] = 125 g ai/ha, postemergence, visual rating
# [13] = 1000 g ai/ha, 0 to 100 scale, 0 no effect, 100 complete control, approx. 10 days
# [14] = 1000 g ai/ha, 0 to 100 scale, 0 no effect, 100 complete control
# [15] = Postemergence, 62 g ai/ha, 13 to 15 days
# [16] = 125 g ai/ha, 0 to 100 scale where 0 is no effect and 100 is complete control
smiles,measurement,setting,value
Cc1cnc(Oc2cccc(C#N)c2-n2cc(C(F)(F)F)cn2)nc1 [Compound 180],"Barnyardgrass plant response rating (0 to 100 scale, 0 is no effect, 100 is complete control)",barnyardgrass [1]; 125 g ai/ha,100
same,Barnyardgrass plant response rating,barnyardgrass [1]; [9],100
same,"Foxtail, Giant plant response rating (0 to 100 scale)",giant foxtail [2]; 125 g ai/ha,100
same,"Foxtail, Giant plant response rating",giant foxtail [2]; [9],100
same,Morningglory plant response rating (0 to 100 scale),morningglory [3],90
same,Morningglory plant response rating,morningglory [3]; [9],100
same,Pigweed plant response rating (0 to 100 scale),pigweed [4],100
same,Pigweed plant response rating,pigweed [4]; [9],100
same,Morningglory plant response rating,morningglory [5]; [10],100
same,"Plant response rating, Morningglory",morningglory [5]; [9],100
same,Pigweed plant response rating,pigweed [6]; [10],100
same,"Plant response rating, Pigweed",pigweed [6]; [9],100
same,"Plant response rating, Sedge, Umbrella","sedge, umbrella",80
same,"Plant response rating, Barnyardgrass",barnyardgrass [7],60
same,"Plant response rating (0 to 100), Blackgrass","blackgrass; 16 g ai/ha, postemergence",0
same,Blackgrass plant response rating,blackgrass; [11],10
same,"Plant response rating, Blackgrass",blackgrass; [12],30
same,"Plant response rating, Blackgrass","blackgrass; Postemergence, 62 g ai/ha",5
same,"Plant response rating (0 to 100), Ryegrass, Italian","Italian ryegrass; 16 g ai/ha, postemergence",0
same,"Ryegrass, Italian plant response rating",Italian ryegrass; [11],0
same,"Plant response rating, Ryegrass, Italian",Italian ryegrass; [12],10
same,"Plant response rating, Ryegrass, Italian","Italian ryegrass; Postemergence, 62 g ai/ha",5
same,"Plant response rating (0 to 100), Corn","corn; 16 g ai/ha, postemergence",0
same,Corn plant response rating,corn; [11],5
same,"Plant response rating, Corn",corn; [12],10
same,"Plant response rating, Corn","corn; Postemergence, 62 g ai/ha",5
same,"Plant response rating (0 to 100), Crabgrass, Large","large (Lg) crabgrass; 16 g ai/ha, postemergence",5
same,"Crabgrass, Large plant response rating",large (Lg) crabgrass; [11],5
same,"Plant response rating, Crabgrass, Large",large (Lg) crabgrass; [12],35
same,"Plant response rating, Crabgrass, Large","large (Lg) crabgrass; Postemergence, 62 g ai/ha",5
same,"Plant response rating (0 to 100), Foxtail, Giant","giant foxtail [8]; 16 g ai/ha, postemergence",5
same,"Foxtail, Giant plant response rating",giant foxtail [8]; [11],5
same,"Plant response rating, Foxtail, Giant",giant foxtail [8]; [12],80
same,"Plant response rating, Foxtail, Giant","giant foxtail [8]; Postemergence, 62 g ai/ha",10
same,"Plant response rating (0 to 100), Johnsongrass","johnsongrass; 16 g ai/ha, postemergence",0
same,Johnsongrass plant response rating,johnsongrass; [11],0
same,"Plant response rating, Johnsongrass",johnsongrass; [12],5
same,"Plant response rating, Johnsongrass","johnsongrass; Postemergence, 62 g ai/ha",0
same,"Plant response rating (0 to 100), Chickweed","chickweed; 16 g ai/ha, postemergence",50
same,Chickweed plant response rating,chickweed; [11],60
same,"Plant response rating, Chickweed",chickweed; [12],80
same,"Plant response rating, Chickweed","chickweed; Postemergence, 62 g ai/ha",70
Clc1cnc(Oc2ccccc2-n2cc(Br)nn2)nc1 [Compound 223],Barnyardgrass plant response rating,barnyardgrass [1]; [13],100
same,"Foxtail, Giant plant response rating",giant foxtail [2]; [13],100
same,Morningglory plant response rating,morningglory [3]; [13],100
same,Pigweed plant response rating,pigweed [4]; [13],100
same,"Plant response rating, Morningglory",morningglory [5]; [14],100
same,"Plant response rating, Pigweed",pigweed [6]; [14],100
same,"Plant response rating, Sedge, Umbrella","sedge, umbrella",85
same,"Plant response rating, Barnyardgrass",barnyardgrass [7],35
same,"Plant response rating (0 to 100), Blackgrass","blackgrass; 16 g ai/ha, postemergence",0
same,Blackgrass plant response rating,blackgrass; [11],30
same,"Plant response rating, Blackgrass",blackgrass; [12],0
same,"Plant response rating, Blackgrass",blackgrass; [15],5
same,"Plant response rating (0 to 100), Ryegrass, Italian","Italian ryegrass; 16 g ai/ha, postemergence",0
same,"Ryegrass, Italian plant response rating",Italian ryegrass; [11],0
same,"Plant response rating, Ryegrass, Italian",Italian ryegrass; [12],5
same,"Plant response rating, Ryegrass, Italian",Italian ryegrass; [15],0
same,"Plant response rating (0 to 100), Corn","corn; 16 g ai/ha, postemergence",5
same,Corn plant response rating,corn; [11],5
same,"Plant response rating, Corn",corn; [12],5
same,"Plant response rating, Corn",corn; [15],5
same,"Plant response rating (0 to 100), Crabgrass, Large","large (Lg) crabgrass; 16 g ai/ha, postemergence",5
same,"Crabgrass, Large plant response rating",large (Lg) crabgrass; [11],5
same,"Plant response rating, Crabgrass, Large",large (Lg) crabgrass; [12],5
same,"Plant response rating, Crabgrass, Large",large (Lg) crabgrass; [15],5
same,"Plant response rating (0 to 100), Foxtail, Giant","giant foxtail [8]; 16 g ai/ha, postemergence",5
same,"Foxtail, Giant plant response rating",giant foxtail [8]; [11],5
same,"Plant response rating, Foxtail, Giant",giant foxtail [8]; [12],5
same,"Plant response rating, Foxtail, Giant",giant foxtail [8]; [15],5
same,"Plant response rating (0 to 100), Johnsongrass","johnsongrass; 16 g ai/ha, postemergence",0
same,Johnsongrass plant response rating,johnsongrass; [11],0
same,"Plant response rating, Johnsongrass",johnsongrass; [12],5
same,"Plant response rating, Johnsongrass",johnsongrass; [15],0
same,"Plant response rating (0 to 100), Chickweed","chickweed; 16 g ai/ha, postemergence",35
same,Chickweed plant response rating,chickweed; [11],50
same,"Plant response rating, Chickweed",chickweed; [12],60
same,"Plant response rating, Chickweed",chickweed; [15],50
O=Cc1cccc(Oc2ncc(I)cn2)c1-n1cc(Br)cn1 [Compound 172],"Plant response rating, Barnyardgrass",barnyardgrass [1]; [16],0
same,Barnyardgrass plant response rating,barnyardgrass [1]; [9],0
same,"Plant response rating, Foxtail, Giant",giant foxtail [2]; [16],0
same,"Foxtail, Giant plant response rating",giant foxtail [2]; [9],0
same,Morningglory plant response rating (0 to 100 scale),morningglory [3],0
same,Morningglory plant response rating,morningglory [3]; [9],0
same,Pigweed plant response rating (0 to 100 scale),pigweed [4],0
same,Pigweed plant response rating,pigweed [4]; [9],50
same,Morningglory plant response rating,morningglory [5]; [10],80
same,"Plant response rating, Morningglory",morningglory [5]; [9],90
same,Pigweed plant response rating,pigweed [6]; [10],100
same,"Plant response rating, Pigweed",pigweed [6]; [9],100
same,"Plant response rating, Sedge, Umbrella","sedge, umbrella",0
same,"Plant response rating, Barnyardgrass",barnyardgrass [7],0
same,"Plant response rating (0 to 100), Blackgrass","blackgrass; 8 g ai/ha, postemergence",0
same,"Plant response rating (0 to 100), Blackgrass","blackgrass; 16 g ai/ha, postemergence",0
same,Blackgrass plant response rating,blackgrass; [11],20
same,"Plant response rating, Blackgrass","blackgrass; Postemergence, 62 g ai/ha",0
same,"Plant response rating (0 to 100), Ryegrass, Italian","Italian ryegrass; 8 g ai/ha, postemergence",0
same,"Plant response rating (0 to 100), Ryegrass, Italian","Italian ryegrass; 16 g ai/ha, postemergence",0
same,"Ryegrass, Italian plant response rating",Italian ryegrass; [11],0
same,"Plant response rating, Ryegrass, Italian","Italian ryegrass; Postemergence, 62 g ai/ha",5
same,"Plant response rating (0 to 100), Corn","corn; 8 g ai/ha, postemergence",0
same,"Plant response rating (0 to 100), Corn","corn; 16 g ai/ha, postemergence",0
same,Corn plant response rating,corn; [11],0
same,"Plant response rating, Corn","corn; Postemergence, 62 g ai/ha",0
same,"Plant response rating (0 to 100), Crabgrass, Large","large (Lg) crabgrass; 8 g ai/ha, postemergence",0
same,"Plant response rating (0 to 100), Crabgrass, Large","large (Lg) crabgrass; 16 g ai/ha, postemergence",0
same,"Crabgrass, Large plant response rating",large (Lg) crabgrass; [11],0
same,"Plant response rating, Crabgrass, Large","large (Lg) crabgrass; Postemergence, 62 g ai/ha",0
same,"Plant response rating (0 to 100), Foxtail, Giant","giant foxtail [8]; 8 g ai/ha, postemergence",0
same,"Plant response rating (0 to 100), Foxtail, Giant","giant foxtail [8]; 16 g ai/ha, postemergence",10
same,"Foxtail, Giant plant response rating",giant foxtail [8]; [11],0
same,"Plant response rating, Foxtail, Giant","giant foxtail [8]; Postemergence, 62 g ai/ha",5
same,"Plant response rating (0 to 100), Johnsongrass","johnsongrass; 8 g ai/ha, postemergence",0
same,"Plant response rating (0 to 100), Johnsongrass","johnsongrass; 16 g ai/ha, postemergence",0
same,Johnsongrass plant response rating,johnsongrass; [11],10
same,"Plant response rating, Johnsongrass","johnsongrass; Postemergence, 62 g ai/ha",10
same,"Plant response rating (0 to 100), Chickweed","chickweed; 8 g ai/ha, postemergence",0
same,"Plant response rating (0 to 100), Chickweed","chickweed; 16 g ai/ha, postemergence",0
same,Chickweed plant response rating,chickweed; [11],50
same,"Plant response rating, Chickweed","chickweed; Postemergence, 62 g ai/ha",70
